Data set [1] can be described thus: Toxicity for mice: plasma biochemical markers. As to conditions: for plasma creatinine: any group; for plasma creatinine / plasma total bilirubin levels: end of treatment; for plasma levels of AST, ALP, ALT, and creatinine: treated vs healthy groups; for plasma total bilirubin levels: treated vs infected untreated mice. It is filed as in vivo, BALB/c mice. The procedure: Toxicity for mice assays. The blood was collected in heparinized tubes and immediately centrifuged at 700×g for 10 min at 25°C to obtain plasma. Plasma levels of aspartate (AST), and alanine (ALT) transferases, alkaline phosphatase (ALP), creatinine, urea, and total bilirubin were determined at the end of treatment using commercial kits (Labtest Diagnóstica S.A., Brazil). The assays were performed according to Velasquez et al. (2017) and the data are expressed as average ± SEM. The statistical differences between groups were evaluated using a one-way analysis of variance, followed by the Student-Newman-Keuls multiple comparison test using GraphPad Prism software. Differences were considered significant when P values were […].

Data set [2] in a line: Quantification of nitrite by the Griess reaction (NO release). The note with it: compounds at 10^-4 M, 5 mM of L-Cys (1:50), 1 h, 37°C. The procedure: The levels of nitrite resulting from the oxidation of NO in the aqueous medium were quantified through the Griess reaction after incubation with an excess of L-cysteine (1:50) according to previously published methods. The experiments were performed in triplicate and repeated three times on different days. […] The results were expressed as a percentage of nitrite (% NO2^−; mol/mol). Statistical analysis was carried out using ANOVA followed by Tukey’s Multiple Comparison Test at a significance level of p < 0.05.
The ability of all synthesized compounds (4a-x) and (14a-g) to release NO was evaluated by indirect determination of NO2^− production. The compounds at 10^−4 M were incubated for 1 h at 37°C in the presence of L-cysteine (1:50) and the produced NO2^− was determined through Griess reaction (Table 1).
(Griess reagent forms a coloured azo dye with nitrite.)

The test system of data set [3] is L. infantum intracellular amastigotes. The data set is described as follows: Anti-amastigote activity in infected murine peritoneal macrophages. Type of data set: cell-based. The note with it: Leishmania infantum, Peritoneal macrophage, 24 h, read-out: EC50 - Effective Concentration that kills 50% of L. infantum amastigote forms. The procedure:
The antileishmanial activity against L. infantum intracellular amastigotes, according to the following methodology. […] Were used infected macrophages as negative control and amphotericin B as the positive control.
After incubation, cells were fixed with methanol and Giemsa stained. The effective concentration to 50% amastigotes death (EC) was obtained by counting 100 macrophages in duplicate, in two independent experiments. The values were obtained by non-linear regression on Bioestat® software, and results were expressed in mean ± standard deviation.

Data set [4] has as its target T1, recombinant Leishmania cysteine protease LmCPB2.8ΔCTE (CPB) (Leishmania mexicana, UniProt P36400).
T1 construct: The ORF that codes for the Leishmania mexicana CPB, lacking the C terminal extension (CPB2.8ΔCTE); made in house; host or cells: Pichia pastoris X-33
The data set is described as follows: Enzymatic inhibition of recombinant CPB (Z-FR-AMC substrate). It is filed as biochemical. The procedure:
The concentration of the active recombinant CPB expressed in Pichia pastoris supernatant was determined by active site titration with N-(trans-Epoxysuccinyl)-L-leucine 4-guanidinobutylamide E-64 (CalBiochem) that was found 1 μM. The active enzyme represented about 80% of the total recombinant enzyme.
Compounds were dissolved in DMSO to a final concentration of 20 μM. The assays were performed in dark 96 well-plates, containing 200 μL of 100 mM sodium acetate buffer (pH 5.5), 200 mM NaCl, 0.01% Triton-X100, 2 nM enzyme, various concentrations of inhibitor, and 5 μM of the substrate Z-FR-AMC (Calbiochem). The final concentration of DMSO was 1% (v/v). The enzyme was pre-incubated at 30°C for 2 minutes before the inhibitor was added, waited 2 minutes and after this incubation, the reaction was started by the addition of the substrate, Z-FR-AMC. The fluorescence was monitored at 380 nm excitation and 460 nm emission filters for 2 minutes at 30°C in an Infinite 200 PRO microplate reader (Tecan, Männedorf, Switzerland). The residual activity was measured by the ratio between enzyme + substrate and enzyme + inhibitor + substrate. […] Results were expressed in mean ± standard deviation of two independent replicates using Bioestat Software.

Data set [5] has as its system L. infantum. The data set is described as follows: In vivo parasite load (LDU index) in L. infantum-infected BALB/c mice. The note with it: oral, twice a day for five days; for reduction of parasite burden in liver and spleen: 7.7 mg/kg/day. The procedure: To evaluate the in vivo antileishmanial efficacy of compound 4f, male BALB/c mice, 20 ± 4 g, 6 weeks-old (CEMIB-UNICAMP) were intraperitoneally inoculated with 100 μL (1x10^8 parasites) of infective promastigotes of L. infantum (MHOM/MA/67/ITMAP-263) at the stationary phase. After nine days post-infection, the animals were treated by oral gavage (100 μL per dose) twice daily for 5 days with a 12h interval between doses according to the dosages described below, and euthanized. […] Work solutions were daily prepared in PBS. Negative controls correspond to infected and non-treated mice. As a positive control, a group of mice received 7.7 mg/kg/day of miltefosine, and a group of uninfected and untreated mice (healthy animals) was used for the analysis. The compound and miltefosine were orally administered twice a day for five days. After treatment, the animals were euthanized and the treatment efficacy was assessed by measuring the parasite burden of the infected animals using the LDU index.
LDU index. After the euthanasia, mice´s liver and spleen were collected for parasite quantification. Tissues impression onto microscopy slides were made, followed by Giemsa-staining and examining under optical microscopy. The corresponding number of amastigotes per 1,000 nucleated cells/organ weight was expressed as LDU index according to Stauber (1958), Sousa-Batista (2018), and Kwofie (2019).

Data set [6] relates to murine peritoneal macrophages. Set-up: method as in PMID 24913171. The note with it: prototype/reference compounds; cited from earlier work.
For data set [7], the system named is L. infantum intracellular amastigotes. Set-up: method as in PMID 24913171. As to conditions: prototype/reference compounds, cited from earlier work.
Data set [8] concerns L. infantum. Further details: method as in PMID 28866421. As to conditions: L. infantum-infected hamsters, cited from earlier work.
Data set [9] deals with T1, recombinant Leishmania cysteine protease LmCPB2.8ΔCTE (CPB). The note with it: read-out: IC50 - Inhibition of CPB (rCPB2.8); prototype/reference compounds; cited from earlier work.

Where “and” joins values, the source holds several entries; their conditions need not be identical. Identical values can stand only once. Like-named read-outs stand apart in the source and are kept apart here.

T1 sequence (P36400 126-341, stated change not applied): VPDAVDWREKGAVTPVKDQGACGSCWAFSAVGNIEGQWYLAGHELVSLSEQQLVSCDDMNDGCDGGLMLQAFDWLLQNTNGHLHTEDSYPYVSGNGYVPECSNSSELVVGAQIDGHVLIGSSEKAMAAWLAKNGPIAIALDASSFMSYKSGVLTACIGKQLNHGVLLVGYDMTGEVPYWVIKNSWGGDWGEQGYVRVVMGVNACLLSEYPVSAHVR

As usually defined, the IC50 is the concentration at which inhibition is half-maximal. For the compound `NC(=O)N/N=C/c1ccc(Oc2no[n+]([O-])c2-c2ccccc2)cc1` [Compound 4f, (E)-4-(4-((2-carbamoylhydrazono)methyl)phenoxy)-3-phenyl-1,2,5-oxadiazole 2-oxide], in data set [1], the plasma creatinine entry is recorded as “no alterations”; the “plasma levels of AST, ALP, ALT, and creatinine” value was “similar”; the “plasma total bilirubin levels” value was “no significant alterations”. Besides, the “side effect (biochemical markers)” value in [1] (up to the highest dose 7.7 mg/kg/day) is “without causing any evident side effect”. The “% NO2- (mol/mol)” value in [2] came to 9.1 ± 0.7 %. For the same compound, the EC50 in [3] came out at 3.6 ± 0.1 µM. In addition, the IC50 in data set [4] came out at 4.5 ± 0.1 µM. The same compound returned a parasite reduction with L. infantum [5] (2.56 mg/kg/day) of 77%. The “reduction of parasite burden in liver and spleen” value in the data set on L. infantum [5] was 90% and ~ 90%.

Usually melting point stands for the temperature of the solid-liquid transition. Take `NC(=O)c1c(COc2ccc(/C=N/NC(=O)c3ccc(O)cc3)cc2)no[n+]1[O-]` [Compound 4i, (E)-3-carbamoyl-4-((4-((2-(4-hydroxybenzoyl)hydrazono)methyl)phenoxy)methyl)-1,2,5-oxadiazole 2-oxide]: the melting point is 201 to 203 °C. Besides, the “% NO2- (mol/mol)” value in data set [2] is 12.3 ± 0.9 %. The EC50 in [3] was above 10 µM. In addition, in [4], the IC50 turned out to be 5.7 ± 0.4 µM.

As to `NC(=O)c1c(COc2ccc(/C=N/NC(=O)c3ccc(N)cc3)cc2)no[n+]1[O-]` [Compound 4j, (E)-4-((4-((2-(4-aminobenzoyl)hydrazono)methyl)phenoxy)methyl)-3-carbamoyl-1,2,5-oxadiazole 2-oxide], the melting point lay in the range of 209 to 214 °C. Further, in data set [2], the “% NO2- (mol/mol)” value was found to be 12.7 ± 0.8 %. The EC50 in data set [3] was above 10 µM. Also, the IC50 in data set [4] worked out at 11.1 ± 0.1 µM.

In the case of `NC(=O)N/N=C/c1ccc(OCc2no[n+]([O-])c2C(N)=O)cc1` [Compound 4n, (E)-3-carbamoyl-4-((4-((2-carbamoylhydrazono)methyl)phenoxy)methyl)-1,2,5-oxadiazole 2-oxide], the melting point was in the range of 228 to 230 °C. In data set [2], the “% NO2- (mol/mol)” value was determined as 12.0 ± 1.4 %. Further, the EC50 in data set [3] is above 10 µM. For the same compound, the half-maximal inhibitory concentration (IC50) in data set [4] came out at 13.7 ± 1.8 µM.

For `NC(=O)c1c(COc2ccc(/C=N/NC(N)=S)cc2)no[n+]1[O-]` [Compound 4o, (E)-4-((4-((2-carbamothioylhydrazono)methyl)phenoxy)methyl)-3-carbamoyl-1,2,5-oxadiazole 2-oxide], the melting point was 232 to 234 °C. Besides, the “% NO2- (mol/mol)” value in data set [2] came to 11.8 ± 1.2 %. Besides, the EC50 in data set [3] was above 10 µM. Besides, in [4], the IC50 was above 20 µM.

`O=C(N/N=C/c1ccc(Oc2no[n+]([O-])c2S(=O)(=O)c2ccccc2)cc1)c1cccc(O)c1` [Lapdesf14e, (E)-4-(4-((2-(3-hydroxybenzoyl)hydrazono)methyl)phenoxy)-3-(phenylsulfonyl)-1,2,5-oxadiazole 2-oxide]: in [6], the CC50 was 208.3 ± 0.2 µM. In addition, the “SI - Selective Index (CC50/EC50)” value in data set [7] was 66.4. Also, the EC50 in [7] (read-out: EC50 L. infantum amastigote forms) was 3.1 ± 0.1 µM. In addition, in the data set on L. infantum [8] (15 days, intraperitoneal), the “decrease of parasite load” value is given as 50%. Further, in the data set with L. infantum [8], the “reduction of parasite load in the liver” value is recorded as 54.2%, the “reduction of parasite load in the spleen” value was 49.9% and the toxic effects result is reported as “without toxic effects”. Further, in data set [2], the “% NO2- (mol/mol)” value is 26% and 26.0 ± 1.6 %. For the same compound, in data set [9], the IC50 is 3.1 ± 0.4 µM.

Turning to `CCCCCCCCCCCCCCCCOP(=O)([O-])OCC[N+](C)(C)C` [miltefosine, reference compound], in [1], the plasma creatinine result is recorded as “no alterations”; the “plasma levels of AST, ALP, ALT, and creatinine” value is “similar”; the “plasma total bilirubin levels” value is reported as “no significant alterations”. The “reduction of parasite burden in liver and spleen” value with L. infantum [5] is ~ 90%.

The values are drawn from PMC8559926, “Design, synthesis and biological evaluation of N-oxide derivatives with potent in vivo antileishmanial activity” (PLoS ONE, 2021).
